Patent US11465972B2, “Inhibitors of oxidized low-density lipoprotein receptor 1 and methods of use thereof” (United States Government as represented by the Department …, priority 2015, dated 2022)
Entries after “also recorded” stand apart in the source; their conditions may differ.

What was measured:
Format in all cases: cell-based, human
ERK1/2 = assay: ox-LDL-induced activation (phosphorylation) of ERK1/2 in HUVECs (Western blotting); settings: 200 nM
Method: (§1) FIG. 4A, FIG. 4B, FIG. 4C, FIG. 4D and FIG. 4E depict the effect of lead molecules on ox-LDL-induced the activation of MAPKs in HUVECs, VCAM-1 expression and monocyte adhesion onto HUVECs. […] (FIG. 4B) Western blot analyses showing phospho-p38MAPK expression in HUVECs following exposure to 200 nM of each compound for 30 min, and subsequently exposed to 5 μg/mL ox-LDL for 6 hours. […] (FIG. 4D) The variation of VCAM-1 mRNA expression levels with different concentrations of the led compounds. The concentrations are indicated on the X-axis and the VCAM-1 mRNA levels are shown on the Y-axis. The plots for all five molecules are shown in separate colors. […] Graphs show data as mean (±SD); n=3 (for Western blot and PCR assays) or n=20 (for monocyte adhesion assay). *P<0.01 vs. control; #P<0.01 or <0.05 vs. ox-LDL group.
(§2) To assess downstream effects of each candidate molecule, ox-LDL induced expression and activation of ERK1/2 and P38MAPK was measured in HUVECs in the absence or presence of each candidate molecule (200 nM). […] Importantly, unphosphorylated MAPKs were not affected by any of the candidate molecules.
(§3) HUVECs were plated into 6-well cell culture plates. When the cells were reached 70% confluence, they were treated with 200 nM of each of 5 molecules for 30 min, and subsequently exposed to […] ox-LDL for 6 h. After washing with PBS for 2 times, the cells were treated with Cell Lysis Buffer (Promega, Madison, Wis.) with protease Inhibitor and phosphatase Inhibitor (Sigma-Aldrich, St. Louis, Mo.). The protein concentrations were measured by Bradford protein assay. Proteins (20 tg) were separated by electrophoresis in 12% precast SDS-PAGE gels, and were transferred onto Nitrocellulose Blotting Membrane (GE Healthcare Life Science, Piscataway, N.J.). The membranes were then incubated with LOX-1, VCAM-1 (Abcam, Cambridge, Mass.), ERK1/2, phospho-ERK1/2, phospho-p38MAPK (Cell Signaling Technology, Inc., Danvers, Mass.), or […] (Santa Cruz Biotechnology, Inc., Dallas, Tex.) primary antibodies (1:1000˜1:2000) in blocking solution at 4° C. overnight. Following wash with TBS-1 for 3 times, the blots were incubated with HRP-conjugated secondary antibodies (1:10000) in blocking solution for 1 hour at room temperature. After 3 washes with PBS, the blots were treated with Western Blotting Luminol Reagents (Santa Cruz Biotechnology) for 3 min and then exposed to Blue Basic Autorad Film (GeneMate, Kaysville, Utah). The protein bands were scanned by a Gel Doc™ XR System (Bio-Rad, Hercules, Calif.), and the density of each band was quantified by Image J software. The relative expression of target proteins was calculated with comparison to […] bands.

P38 MAPK = assay: ox-LDL-induced activation (phosphorylation) of P38 MAPK in HUVECs (Western blotting); settings: 200 nM
Method: as §1, §2, §3

LOX-1 protein expression = assay: ox-LDL-induced LOX-1 protein expression in HUVECs (Western blotting); settings: 200 nM, 5 μg/ml ox-LDL
Method: (§4) FIG. 3A, FIG. 3B, FIG. 3C and FIG. 3D depict the inhibitory effect of the lead compounds on Dil-ox-LDL uptake by HUVECs and CHO cells (measured by flow cytometry) and the effect of the lead compounds on ox-LDL-induced LOX-1 mRNA and protein expression. (FIG. 3A) (Upper Panel) Flow cytometry measurements using HUVECs in the presence of the five lead compounds (Mol-1-Mol-5), each a at 200 nM concentration. (Lower Panel) The percentage of internalized ox-LDL. Graphs show data as mean (±SD); n=4. *P<0.01 or <0.05 vs. control. (FIG. 3B) IC50 value for Mol-5. IC50 value (in nM) is based on inhibition of Dil-ox-LDL uptake in CHO cells overexpressing human LOX-1. Graphs show data as mean (±SD); n=5. *P<0.01 or <0.05 vs. control. (FIG. 3C) Western blotting assay showing LOX-1 protein expression in HUVECs following incubation with 200 nM Mol-1 to Mol-5 for 30 min, and subsequently exposure to 5 μg/mL ox-LDL for 6 hours. (FIG. 3D) The variation of LOX-1 mRNA expression levels at different concentrations of the compounds following exposure of HUVECs to 5 μg/mL ox-LDL. The concentrations are indicated on the X-axis and the LOX-1 mRNA levels are shown on the Y-axis. The plots for all the five molecules are shown in separate colors. Graphs show data as mean (±SD); n=3. *P<0.01 vs. control; #P<0.01 vs. ox-LDL group.
Internalization of ox-LDL via binding to LOX-1 activates endothelial cells and upregulates the expression of LOX-1^2. In this study, it was tested if the lead molecules would inhibit LOX-1 expression. Accordingly, LOX-1 protein expression in HUVECs was measured by Western blotting.
HUVECs were plated into 6-well cell culture plates. […] The protein concentrations were measured by Bradford protein assay. […] The protein bands were scanned by a Gel Doc™ XR System (Bio-Rad, Hercules, Calif.), and the density of each band was quantified by Image J software. The relative expression of target proteins was calculated with comparison to […] bands.

LOX-1 mRNA = assay: ox-LDL-induced LOX-1 mRNA expression in HUVECs (q-PCR); settings: for effect on ox-LDL-induced LOX-1 mRNA upregulation / LOX-1 transcription (in words): 5 μg/ml ox-LDL 6 h, 20, 200, 2000 nM; for reduction of LOX-1 transcription: 200 nM concentration
Method: as §4
LOX-1 mRNA levels in HUVECs treated with ox-LDL in the absence or presence of the lead molecules at varying concentrations was also measured.
HUVECs were plated into 12-well plates, and treated with 0, 20, 200 and 2000 nM of each of 5 molecules […] for 30 min, and subsequently exposed to […] ox-LDL for 6 h at 37° C. Total RNA was isolated from the treated HUVECs by using a RNeasy Mini-Kit […] according to the manufacturer's instructions. Prior to using, RNA was treated with DNase I and diluted to 100 ng/tL. 100 ng RNA was applied to synthesize cDNA with SuperScript III 1st Strand DNA Synthesis Kit. qPCR was performed using the Applied Biosystems Fast 7500HT real-time PCR system with a 20 tL reaction volume including 10 tL GoTaq qPCR Master Mix (Promega, Madison, Wis.), 100 ng of cDNA and 0.3 tM primers. Data was analyzed by using MX3000P software. Relative mRNA expression was quantified using the comparative threshold cycle (Ct) method. The sequences of primers used for PCR reaction have been described previously^30.

Row | SMILES | effect on ox-LDL-induced activation/phosphorylation of ERK1/2 (in words) (ERK1/2) | effect on ox-LDL-induced activation of P38 MAPK (in words) (P38 MAPK) | reduction of the level of phospho-P38 MAPK (P38 MAPK) | effect on ox-LDL-induced LOX-1 protein expression (LOX-1 protein expression) | effect on ox-LDL-induced LOX-1 mRNA upregulation / LOX-1 transcription (in words) (LOX-1 mRNA) | effect on ox-LDL-induced activation/phosphorylation of ERK1/2 (in words) (ERK1/2; listed as MoL-4) | reduction of LOX-1 transcription (LOX-1 mRNA)
1 | CCOCCCNC(=O)CCN1C(=O)COc2ccccc21 [Mol-1] | significantly inhibited; also recorded: moderately | significantly inhibited | around 60% | significantly reduced | – | – | –
2 | CC(C)(C)C(=O)NCCc1nc2ccccc2n1Cc1ccccc1F [Mol-2] | no significant effect | no significant effect | – | – | no significant effect | – | –
3 | CCCn1c(CCNC(=O)CCCO)nc2ccccc21 [Mol-4] | potently reduced | significantly inhibited | around 60% | significantly reduced | significantly reduced | significantly inhibited | 47%
4 | Cc1cc(C)n(CC(O)COc2ccccc2)n1 (centres unmarked) [Mol-5, 1-(3,5-dimethyl-1H-pyrazol-1-yl)-3-phenoxypropan-2-ol] | significantly inhibited; also recorded: maximum inhibition; also recorded: potently reduced | significantly inhibited; also recorded: maximum inhibition | 75% | significantly reduced | significantly reduced | – | 70%
